From ChEMBL document CHEMBL5131570, “Discovery of Potent Small-Molecule USP8 Inhibitors for the Treatment of Breast Cancer through Regulating ERα Expression” (J Med Chem, 2022)
The source made the active and inactive calls. No cut-off for these calls is given here.

How the values were obtained:
MCF7 = assay: Antitumor activity against human MCF7 cells xenografted in BALB/c mouse assessed as reduction of EGFR phosphorylation in tumor tissue at 5 to 20 mg/kg, ip administered via gavage every other day for 14 days by immunohistochemistry analysis; assay type: functional, organism-based; settings: dose 5-20 mg/kg, time 14.0 day
[1] = Toxicity in BALB/c mouse xenografted with human MCF7 cells assessed as effect on spleen at 5 to 20 mg/kg, […] every other day measured after 14 days by hematoxylin and eosin staining based analysis; assay type: organism-based; settings: in vivo, 336 h, dose 5-20 mg/kg, time 14 day

For `Cc1n[nH]c(C)c1Oc1c(O)cc(O)c2c(=O)cc(-c3ccc(N4CCN(c5ccccn5)CC4)cc3)oc12`, the Activity (MCF7) was “Active” and the Activity [1] was “Non-Toxic”.
